Laboratory results as given in patent US20240300937A1, “Substituted 6-(Pyrimidin-4-yl)Quinoline Compounds as Cyclin Dependent Kinase Inhibitors” (BeiGene, Ltd., priority 2022, published 2024).

Columns and labels:
CDK6/Cyclin D3 = CDK6/Cyclin D3 (Homo sapiens (Human), UniProt Q00534); assay: CDK6/Cyclin D3 kinase TR-FRET inhibition assay; assay type: biochemical; conditions: 1 mM ATP, Rb (Ser780)-biotin substrate, read-out: CDK6D3 IC50
Experimental: (§1) Compounds disclosed herein were tested for inhibition of CDK4/Cyclin D1 or CDK6/Cyclin D3 kinase in an assay based on the time-resolved fluorescence-resonance energy transfer (TR-FRET) methodology. The assay was carried out in 384-well low volume black plates in a reaction mixture containing CDK4/Cyclin D1 or CDK6/Cyclin D3, 1 mM ATP, 0.15 μM Rb (Ser780)-biotin substrate and 0-10 μM compound in buffer containing 50 mM HEPES pH7.0, 0.02% NaN3, 0.01% BSA, 0.1 mM Orthovanadate, 50 mM MgCl2, 1 mM DTT and 0.005% Tween-20. The kinase was incubated with compound for 60 minutes at room temperature and the reaction was initiated by the addition of ATP and Rb (Ser780)-biotin substrate. After reaction at room temperature for 120 minutes, an equal volume of stop/detection solution was added according to the manufacture's instruction (Cisbio Bioassays). The stop/detection solution contained Streptavidin-XL665 and Anti-pRb (Ser780) mAb-Eu Cryptate in Detection buffer (Cisbio Bioassays). Plates were incubated at room temperature for 60 minutes, and the TR-FRET signals (ex337 nm, em665 nm/620 nm) were recorded on a PHERAstar FSX plate reader (BMG Labtech). The inhibition percentage of CDK4/Cyclin D1 or CDK6/Cyclin D3 kinase activity in presence of increasing concentrations of compounds was calculated based on the ratio of fluorescence at 665 nm to that at 620 nm. The IC50 for each compound was derived from fitting the data to the four-parameter logistic equation by Dotmatics.

CDK4/Cyclin D1 = CDK4/Cyclin D1 (Homo sapiens (Human), UniProt P11802); assay: CDK4/Cyclin D1 kinase TR-FRET inhibition assay; assay type: biochemical; conditions: 1 mM ATP, Rb (Ser780)-biotin substrate, read-out: CDK4D1 IC50
CDK4/Cyclin D1, sequence (P11802 whole entry): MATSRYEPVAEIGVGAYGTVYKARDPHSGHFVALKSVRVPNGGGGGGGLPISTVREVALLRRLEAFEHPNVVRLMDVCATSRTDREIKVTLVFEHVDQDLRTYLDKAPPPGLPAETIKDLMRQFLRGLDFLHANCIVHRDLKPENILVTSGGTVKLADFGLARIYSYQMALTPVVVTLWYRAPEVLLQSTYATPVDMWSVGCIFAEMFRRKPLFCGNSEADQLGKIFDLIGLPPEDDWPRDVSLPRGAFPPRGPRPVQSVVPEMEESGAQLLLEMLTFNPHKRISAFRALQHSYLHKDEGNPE
CDK4/Cyclin D1, sequence (P24385 whole entry partner): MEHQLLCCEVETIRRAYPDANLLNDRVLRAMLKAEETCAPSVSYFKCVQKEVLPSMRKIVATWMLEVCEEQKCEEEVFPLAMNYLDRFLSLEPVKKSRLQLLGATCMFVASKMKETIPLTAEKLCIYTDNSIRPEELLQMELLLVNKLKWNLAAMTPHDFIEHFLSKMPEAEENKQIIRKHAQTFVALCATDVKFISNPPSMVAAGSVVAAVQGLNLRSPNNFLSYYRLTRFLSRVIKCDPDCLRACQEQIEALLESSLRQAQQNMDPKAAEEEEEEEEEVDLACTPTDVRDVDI
Experimental: as §1

CDK6/Cyclin D3, sequence (Q00534 whole entry): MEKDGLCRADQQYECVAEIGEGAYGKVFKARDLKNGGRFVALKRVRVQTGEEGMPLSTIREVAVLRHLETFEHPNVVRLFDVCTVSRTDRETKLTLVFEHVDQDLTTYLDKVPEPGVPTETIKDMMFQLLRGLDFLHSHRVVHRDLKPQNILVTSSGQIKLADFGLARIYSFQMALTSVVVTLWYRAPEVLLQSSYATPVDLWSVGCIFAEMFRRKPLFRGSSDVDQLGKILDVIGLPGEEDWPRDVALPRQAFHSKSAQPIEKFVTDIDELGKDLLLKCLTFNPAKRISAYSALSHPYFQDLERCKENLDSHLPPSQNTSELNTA
CDK6/Cyclin D3, sequence (P30281 whole entry partner): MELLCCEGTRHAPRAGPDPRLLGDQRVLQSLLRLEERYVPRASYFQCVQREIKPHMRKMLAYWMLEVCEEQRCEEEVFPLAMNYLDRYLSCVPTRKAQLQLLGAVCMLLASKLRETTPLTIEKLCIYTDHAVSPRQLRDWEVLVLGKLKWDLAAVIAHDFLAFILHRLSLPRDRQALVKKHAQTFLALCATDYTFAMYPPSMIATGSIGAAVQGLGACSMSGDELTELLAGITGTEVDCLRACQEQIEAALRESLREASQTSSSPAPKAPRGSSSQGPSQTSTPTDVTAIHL

| Compound | IC50 (CDK6/Cyclin D3) | IC50 (CDK4/Cyclin D1) |
| --- | --- | --- |
| CC(C)c1c(CO)cnc2c(F)cc(-c3nc(N[C@@H]4CCOC[C@H]4O)ncc3F)cc12 [Example 51, (3S,4R)-4-((5-fluoro-4-(8-fluoro-3-(hydroxymethyl)-4-isopropylquinolin-6-yl)pyrimidin-2-yl)amino)tetrahydro-2H-pyran-3-ol] | 67.2 nM | 4.2 nM |
| CC(C)c1c(CNC2CC(F)(F)C2)cnc2c(F)cc(-c3nc(N[C@@H]4CCOC[C@H]4O)ncc3F)cc12 [Example 52, (3S,4R)-4-((4-(3-(((3,3-difluorocyclobutyl)amino)methyl)-8-fluoro-4-isopropylquinolin-6-yl)-5-fluoropyrimidin-2-yl)amino)tetrahydro-2H-pyran-3-ol] | 240 nM | 10 nM |
| CC(C)c1c(CN[C@@H]2CCCOC2)cnc2c(F)cc(-c3nc(N[C@@H]4CCOC[C@H]4O)ncc3F)cc12 [Example 53, (3S,4R)-4-((5-fluoro-4-(8-fluoro-4-isopropyl-3-((((R)-tetrahydro-2H-pyran-3-yl)amino)methyl)quinolin-6-yl)pyrimidin-2-yl)amino)tetrahydro-2H-pyran-3-ol] | 348 nM | 12 nM |
| CC(C)c1c(CN2C3CCCC2CC(O)C3)cnc2ccc(-c3nc(N[C@@H]4CCOC[C@H]4O)ncc3F)cc12 (stereo partly drawn) [Example 60, (1R,3R,5S)-9-((6-(5-fluoro-2-(((3S,4R)-3-hydroxytetrahydro-2H-pyran-4-yl)amino)pyrimidin-4-yl)-4-isopropylquinolin-3-yl)methyl)-9-azabicyclo[3.3.1]nonan-3-ol] | 585 nM | 15 nM |
| CC(C)c1c(C(C)(C)O)cnc2c(F)cc(-c3nc(N[C@@H]4CCOC[C@H]4O)ncc3F)cc12 [Example 67, (3S,4R)-4-((5-fluoro-4-(8-fluoro-3-(2-hydroxypropan-2-yl)-4-isopropylquinolin-6-yl)pyrimidin-2-yl)amino)tetrahydro-2H-pyran-3-ol] | 42.7 nM | 2.5 nM |
| CC(C)c1c(C(C)(C)O)cnc2cc(Cl)c(-c3nc(N[C@@H]4CCOC[C@H]4O)ncc3F)cc12 [Example 70, (3S,4R)-4-((4-(7-chloro-3-(2-hydroxypropan-2-yl)4-isopropylquinolin-6-yl)-5-fluoropyrimidin-2-yl)amino)tetrahydro-2H-pyran-3-ol] | 508 nM | 31 nM |
| CC(C)c1c(C(C)(C)O)cnc2cc(F)c(-c3nc(N[C@@H]4CCOC[C@H]4O)ncc3F)cc12 [Example 116, (3S,4R)-4-((5-fluoro-4-(7-fluoro-3-(2-hydroxypropan-2-yl)-4-isopropylquinolin-6-yl)pyrimidin-2-yl)amino)tetrahydro-2H-pyran-3-ol] | 198 nM | 10.9 nM |
| CC(C)c1c(C(C)(C)O)cnc2c(F)cc(-c3nc(N[C@@H]4CCOC[C@H]4O)ncc3Cl)cc12 [Example 117, (3S,4R)-4-((5-chloro-4-(8-fluoro-3-(2-hydroxypropan-2-yl)-4-isopropylquinolin-6-yl)pyrimidin-2-yl)amino)tetrahydro-2H-pyran-3-ol] | 54 nM | 2.1 nM |
| CC(C)c1nc(C(C)(C)O)nc2ccc(-c3nc(N[C@@H]4CCOC[C@H]4O)ncc3F)cc12 [Example 207, (3S,4R)-4-((5-fluoro-4-(2-(2-hydroxypropan-2-yl)-4-isopropylquinazolin-6-yl)pyrimidin-2-yl)amino)tetrahydro-2H-pyran-3-ol] | 3020 nM | 536 nM |
| CC(C)c1cc(C(C)(C)O)nc2c(F)cc(-c3nc(N[C@@H]4CCOC[C@H]4O)ncc3Cl)cc12 [Example 208, (3S,4R)-4-((5-chloro-4-(8-fluoro-2-(2-hydroxypropan-2-yl)-4-isopropylquinolin-6-yl)pyrimidin-2-yl)amino)tetrahydro-2H-pyran-3-ol] | 497 nM | 146 nM |
| CC(C)c1nc(C(C)(C)O)nc2c(F)cc(-c3nc(N[C@@H]4CCOC[C@H]4O)ncc3Cl)cc12 [Example 209, (3S,4R)-4-((5-chloro-4-(8-fluoro-2-(2-hydroxypropan-2-yl)-4-isopropylquinazolin-6-yl)pyrimidin-2-yl)amino)tetrahydro-2H-pyran-3-ol] | 4990 nM | 1770 nM |

Other lines, results leading:

| IC50 (CDK6/Cyclin D3) | IC50 (CDK4/Cyclin D1) | Compound |
| --- | --- | --- |
| 361 nM | 19 nM | CC(C)c1c(CN2C[C@@H](O)[C@H](F)C2)cnc2ccc(-c3nc(N[C@@H]4CCOC[C@H]4O)ncc3F)cc12 [Example 54, (3R,4R)-4-fluoro-1-((6-(5-fluoro-2-(((3S,4R)-3-hydroxytetrahydro-2H-pyran-4-yl)amino)pyrimidin-4-yl)-4-isopropylquinolin-3-yl)methyl)pyrrolidin-3-ol] |
| 1090 nM | 34 nM | CC(C)c1c([C@H](C)N)cnc2ccc(-c3nc(N[C@@H]4CCOC[C@H]4O)ncc3F)cc12 [Example 55, (3S,4R)-4-((4-(3-((S)-1-aminoethyl)-4-isopropylquinolin-6-yl)-5-fluoropyrimidin-2-yl)amino)tetrahydro-2H-pyran-3-ol] |
| 214 nM | 3.5 nM | CC(C)c1c([C@@H](C)N)cnc2ccc(-c3nc(N[C@@H]4CCOC[C@H]4O)ncc3F)cc12 [Example 56, (3S,4R)-4-((4-(3-((R)-1-aminoethyl)-4-isopropylquinolin-6-yl)-5-fluoropyrimidin-2-yl)amino)tetrahydro-2H-pyran-3-ol] |
| 486 nM | 18 nM | CC(C)c1c(CN2CCC[C@H](O)C2)cnc2ccc(-c3nc(N[C@@H]4CCOC[C@H]4O)ncc3F)cc12 [Example 57, (S)-1-((6-(5-fluoro-2-(((3S,4R)-3-hydroxytetrahydro-2H-pyran-4-yl)amino)pyrimidin-4-yl)-4-isopropylquinolin-3-yl)methyl)piperidin-3-ol] |
| 406 nM | 14 nM | CC(C)c1c(CN2CCOC[C@H]2C)cnc2ccc(-c3nc(N[C@@H]4CCOC[C@H]4O)ncc3F)cc12 [Example 58, (3S,4R)-4-((5-fluoro-4-(4-isopropyl-3-(((R)-3-methylmorpholino)methyl)quinolin-6-yl)pyrimidin-2-yl)amino)tetrahydro-2H-pyran-3-ol] |
| 3590 nM | 46 nM | CC(C)c1c(CNc2ccccn2)cnc2ccc(-c3nc(N[C@@H]4CCOC[C@H]4O)ncc3F)cc12 [Example 59, (3S,4R)-4-((5-fluoro-4-(4-isopropyl-3-((pyridin-2-ylamino)methyl)quinolin-6-yl)pyrimidin-2-yl)amino)tetrahydro-2H-pyran-3-ol] |
| 426 nM | 8.7 nM | CC(C)c1c(CN2CCC[C@H](C#N)C2)cnc2ccc(-c3nc(N[C@@H]4CCOC[C@H]4O)ncc3F)cc12 [Example 61, (S)-1-((6-(5-fluoro-2-(((3S,4R)-3-hydroxytetrahydro-2H-pyran-4-yl)amino)pyrimidin-4-yl)-4-isopropylquinolin-3-yl)methyl)piperidine-3-carbonitrile] |
| 572 nM | 11 nM | CC(C)c1c(CN2CCC[C@@H](C#N)C2)cnc2ccc(-c3nc(N[C@@H]4CCOC[C@H]4O)ncc3F)cc12 [Example 62, (R)-1-((6-(5-fluoro-2-(((3S,4R)-3-hydroxytetrahydro-2H-pyran-4-yl)amino)pyrimidin-4-yl)-4-isopropylquinolin-3-yl)methyl)piperidine-3-carbonitrile] |
| 395 nM | 8.7 nM | CC(C)c1c(CN2[C@H](C)COC[C@@H]2C)cnc2ccc(-c3nc(N[C@@H]4CCOC[C@H]4O)ncc3F)cc12 [Example 68] |
| 355 nM | 8.3 nM | CC(C)c1c(CN2[C@H](C)COC[C@H]2C)cnc2ccc(-c3nc(N[C@@H]4CCOC[C@H]4O)ncc3F)cc12 [Example 69, (3S,4R)-4-((4-(3-(((3R,5R)-3,5-dimethylmorpholino)methyl)-4-isopropylquinolin-6-yl)-5-fluoropyrimidin-2-yl)amino)tetrahydro-2H-pyran-3-ol] |
| 149 nM | 23.5 nM | Cc1c(-c2nc(N[C@@H]3CCOC[C@H]3O)ncc2F)ccc2ncc(CO)c(C(C)C)c12 [Example 120, (3S,4R)-4-((5-fluoro-4-(3-(hydroxymethyl)-4-isopropyl-5-methylquinolin-6-yl)pyrimidin-2-yl)amino)tetrahydro-2H-pyran-3-ol] |
| 66.1 nM | 1.7 nM | Cc1c(-c2nc(N[C@@H]3CCOC[C@H]3O)ncc2F)ccc2ncc(CN)c(C(C)C)c12 [Example 145, (3S,4R)-4-((4-(3-(aminomethyl)-4-isopropyl-5-methylquinolin-6-yl)-5-fluoropyrimidin-2-yl)amino)tetrahydro-2H-pyran-3-ol] |
| 1500 nM | 185 nM | CC(C)c1cc(C(C)(C)O)nc2ccc(-c3nc(N[C@@H]4CCOC[C@H]4O)ncc3F)cc12 [Example 206, (3S,4R)-4-((5-fluoro-4-(2-(2-hydroxypropan-2-yl)-4-isopropylquinolin-6-yl)pyrimidin-2-yl)amino)tetrahydro-2H-pyran-3-ol] |
